Where two headings read alike, the source gives them in different places.
Legend:
[1] = test system: ZIKV replicon in Vero cells; test: ZIKV Replication Inhibition Assay (replicon, NanoLuc); settings: Zika virus, Vero, 72 h, read-out: Zika Replicon EC50
[2] = molecular target: West Nile Virus (WNV) NS2B-NS3 protease (West Nile virus (WNV), UniProt P06935); test: WNV Protease Inhibition Assay; assay type: biochemical
From the text: WNV Protease Inhibition Assay

[3] = 2 nM protease, 10 μM pERTKR-AMC substrate, read-out: WNV Protease IC50

Sequence of West Nile Virus (WNV) NS2B-NS3 protease (P06935 1502-1679 limits assumed): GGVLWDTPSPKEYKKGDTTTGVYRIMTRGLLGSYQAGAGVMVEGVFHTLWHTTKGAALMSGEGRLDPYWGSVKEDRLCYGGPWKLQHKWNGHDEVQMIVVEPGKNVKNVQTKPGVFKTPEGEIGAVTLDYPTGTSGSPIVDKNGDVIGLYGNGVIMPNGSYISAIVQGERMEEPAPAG
Sequence of West Nile Virus (WNV) NS2B-NS3 protease (P06935 1371-1501 partner limits assumed): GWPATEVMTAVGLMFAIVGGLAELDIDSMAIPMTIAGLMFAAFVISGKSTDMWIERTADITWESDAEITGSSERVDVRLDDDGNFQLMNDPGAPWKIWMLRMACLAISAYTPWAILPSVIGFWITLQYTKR

SMILES	EC50 [1] [nM]	IC50 [2] [nM]	IC50 [2, 3] [nM]
O=C([N-]c1c[n+](Cc2ccc(I)cc2)no1)Nc1cncc(C(F)(F)F)c1 [Example 55, (3-(4-iodobenzyl)-1,2,3-oxadiazol-3-ium-5-yl)((5-(trifluoromethyl)pyridin-3-yl)carbamoyl)amide]	100 to 1000	100 to 1000	
O=C([N-]c1c[n+](Cc2ccc(-c3cncnc3)cc2)no1)Nc1cncc(C(F)(F)F)c1 [Example 57, (3-(4-(pyrimidin-5-yl)benzyl)-1,2,3-oxadiazol-3-ium-5-yl)((5-(trifluoromethyl)pyridin-3-yl)carbamoyl)amide]	< 100		< 100
COc1ncc(-c2ccc(C[n+]3cc([N-]C(=O)Nc4cncc(C(F)(F)F)c4)on3)cc2)cn1 [Example 58, (3-(4-(2-methoxypyrimidin-5-yl)benzyl)-1,2,3-oxadiazol-3-ium-5-yl)((5-(trifluoromethyl)pyridin-3-yl)carbamoyl)amide]	100 to 1000		< 100
O=C([N-]c1c[n+]([C@@H]2CCC[C@H]2c2ccccc2)no1)Nc1cccc(C(F)(F)F)c1 [Example 59, (3-((1R,2S)-2-phenylcyclopentyl)-1,2,3-oxadiazol-3-ium-5-yl)((3-(trifluoromethyl)phenyl)carbamoyl)amide]	100 to 1000	1000 to 20000	
Cc1ncncc1-c1ccc(C[n+]2cc([N-]C(=O)Nc3cccc(C(F)(F)F)c3)on2)cc1 [Example 60, (3-(4-(4-methylpyrimidin-5-yl)benzyl)-1,2,3-oxadiazol-3-ium-5-yl)((3-(trifluoromethyl)phenyl)carbamoyl)amide]	< 100		< 100
O=C([N-]c1c[n+](Cc2ccc(-c3ccnnc3)cc2)no1)Nc1cccc(C(F)(F)F)c1 [Example 61, (3-(4-(pyridazin-4-yl)benzyl)-1,2,3-oxadiazol-3-ium-5-yl)((3-(trifluoromethyl)phenyl)carbamoyl)amide]	< 100		< 100
COc1ncncc1-c1ccc(C[n+]2cc([N-]C(=O)Nc3cccc(C(F)(F)F)c3)on2)cc1 [Example 62, (3-(4-(4-methoxypyrimidin-5-yl)benzyl)-1,2,3-oxadiazol-3-ium-5-yl)((3-(trifluoromethyl)phenyl)carbamoyl)amide]	100 to 1000		< 100
COc1cc(-c2ccc(C[n+]3cc([N-]C(=O)Nc4cccc(C(F)(F)F)c4)on3)cc2)ccn1 [Example 63, (3-(4-(2-methoxypyridin-4-yl)benzyl)-1,2,3-oxadiazol-3-ium-5-yl)((3-(trifluoromethyl)phenyl)carbamoyl)amide]	100 to 1000	100 to 1000	
O=C([N-]c1c[n+](Cc2ccc(-c3ccnc(O)c3)cc2)no1)Nc1cccc(C(F)(F)F)c1 [Example 64, (3-(4-(2-hydroxypyridin-4-yl)benzyl)-1,2,3-oxadiazol-3-ium-5-yl)((3-(trifluoromethyl)phenyl)carbamoyl)amide]	100 to 1000		< 100
O=C([N-]c1c[n+](Cc2ccc(-c3ccncc3)cc2)no1)Nc1cncc(C(F)(F)F)c1 [Example 67, (3-(4-(pyridin-4-yl)benzyl)-1,2,3-oxadiazol-3-ium-5-yl)((5-(trifluoromethyl)pyridin-3-yl)carbamoyl)amide]	100 to 1000	100 to 1000	
C[C@H](c1ccc(Br)cc1)[n+]1cc([N-]C(=O)Nc2cccc(C(F)(F)F)c2)on1 [Example 68, (R)-(3-(1-(4-bromophenyl)ethyl)-1,2,3-oxadiazol-3-ium-5-yl)((3-(trifluoromethyl)phenyl)carbamoyl)amide]	1000 to 20000	1000 to 20000	
C[C@@H](c1ccc(Br)cc1)[n+]1cc([N-]C(=O)Nc2cccc(C(F)(F)F)c2)on1 [Example 69, (S)-(3-(1-(4-bromophenyl)ethyl)-1,2,3-oxadiazol-3-ium-5-yl)((3-(trifluoromethyl)phenyl)carbamoyl)amide]	100 to 1000	1000 to 20000	
C[C@H](c1ccc(-c2cncnc2)cc1)[n+]1cc([N-]C(=O)Nc2cccc(C(F)(F)F)c2)on1 [Example 72, (R)-(3-(1-(4-(pyrimidin-5-yl)phenyl)ethyl)-1,2,3-oxadiazol-3-ium-5-yl)((3-(trifluoromethyl)phenyl)carbamoyl)amide]	100 to 1000	100 to 1000	
C[C@H](c1ccc(Br)cc1)[n+]1cc([N-]C(=O)Nc2cncc(C(F)(F)F)c2)on1 [Example 73, (R)-(3-(1-(4-bromophenyl)ethyl)-1,2,3-oxadiazol-3-ium-5-yl)((5-(trifluoromethyl)pyridin-3-yl)carbamoyl)amide]	1000 to 20000	1000 to 20000	
C[C@@H](c1ccc(-c2cncnc2)cc1)[n+]1cc([N-]C(=O)Nc2cccc(C(F)(F)F)c2)on1 [Example 74, (S)-(3-(1-(4-(pyrimidin-5-yl)phenyl)ethyl)-1,2,3-oxadiazol-3-ium-5-yl)((3-(trifluoromethyl)phenyl)carbamoyl)amide]	100 to 1000		< 100
C[C@H](c1ccc(-c2cncnc2)cc1)[n+]1cc([N-]C(=O)Nc2cncc(C(F)(F)F)c2)on1 [Example 75, (R)-(3-(1-(4-(pyrimidin-5-yl)phenyl)ethyl)-1,2,3-oxadiazol-3-ium-5-yl)((5-(trifluoromethyl)pyridin-3-yl)carbamoyl)amide]	100 to 1000		< 100
O=C([N-]c1c[n+](Cc2ccc(-c3cncnc3)cn2)no1)Nc1cncc(C(F)(F)F)c1 [Example 125, (3-((5-(pyrimidin-5-yl)pyridin-2-yl)methyl)-1,2,3-oxadiazol-3-ium-5-yl)((5-(trifluoromethyl)pyridin-3-yl)carbamoyl)amide]	100 to 1000	100 to 1000	
Cc1noc(C)c1-c1ccc(C[n+]2cc([N-]C(=O)Nc3cncc(C(F)(F)F)c3)on2)nc1 [Example 126, (3-((5-(3,5-dimethylisoxazol-4-yl)pyridin-2-yl)methyl)-1,2,3-oxadiazol-3-ium-5-yl)((5-(trifluoromethyl)pyridin-3-yl)carbamoyl)amide]	< 100		< 100
Cc1noc(C)c1-c1ccc(C[n+]2cc([N-]C(=O)Nc3cncc(C(F)(F)F)c3)on2)cc1 [Example 127, (3-(4-(3,5-dimethylisoxazol-4-yl)benzyl)-1,2,3-oxadiazol-3-ium-5-yl)((5-(trifluoromethyl)pyridin-3-yl)carbamoyl)amide]	100 to 1000	100 to 1000	
Cc1cnncc1-c1ccc(C[n+]2cc([N-]C(=O)Nc3cncc(C(F)(F)F)c3)on2)nc1 [Example 128, (3-((5-(5-methylpyridazin-4-yl)pyridin-2-yl)methyl)-1,2,3-oxadiazol-3-ium-5-yl)((5-(trifluoromethyl)pyridin-3-yl)carbamoyl)amide]	1000 to 20000	100 to 1000	
Cc1cnncc1-c1ccc(C[n+]2cc([N-]C(=O)Nc3cccc(C(F)(F)F)c3)on2)nc1 [Example 129, (3-((5-(5-methylpyridazin-4-yl)pyridin-2-yl)methyl)-1,2,3-oxadiazol-3-ium-5-yl)((3-(trifluoromethyl)phenyl)carbamoyl)amide]	100 to 1000		< 100
Cc1ncnc(C)c1-c1ccc(C[n+]2cc([N-]C(=O)Nc3cccc(C(F)(F)F)c3)on2)nc1 [Example 130, (3-((5-(4,6-dimethylpyrimidin-5-yl)pyridin-2-yl)methyl)-1,2,3-oxadiazol-3-ium-5-yl)((3-(trifluoromethyl)phenyl)carbamoyl)amide]	< 100		< 100
O=C([N-]c1c[n+](Cc2ccc(-c3cncnc3C(F)(F)F)cn2)no1)Nc1cccc(C(F)(F)F)c1 [Example 131, ((3-(trifluoromethyl)phenyl)carbamoyl)(3-((5-(4-(trifluoromethyl)pyrimidin-5-yl)pyridin-2-yl)methyl)-1,2,3-oxadiazol-3-ium-5-yl)amide]	< 100		< 100
Cc1ncnc(C)c1-c1ccc(C[n+]2cc([N-]C(=O)Nc3cncc(C(F)(F)F)c3)on2)nc1 [Example 132, (3-((5-(4,6-dimethylpyrimidin-5-yl)pyridin-2-yl)methyl)-1,2,3-oxadiazol-3-ium-5-yl)((5-(trifluoromethyl)pyridin-3-yl)carbamoyl)amide]	100 to 1000	100 to 1000	
COc1ncc(-c2ccc(C[n+]3cc([N-]C(=O)Nc4cncc(C(F)(F)F)c4)on3)nc2)c(C)n1 [Example 133, (3-((5-(2-methoxy-4-methylpyrimidin-5-yl)pyridin-2-yl)methyl)-1,2,3-oxadiazol-3-ium-5-yl)((5-(trifluoromethyl)pyridin-3-yl)carbamoyl)amide]	100 to 1000	100 to 1000	
COc1ncc(-c2ccc(C[n+]3cc([N-]C(=O)Nc4cccc(C(F)(F)F)c4)on3)nc2)c(C)n1 [Example 134, (3-((5-(2-methoxy-4-methylpyrimidin-5-yl)pyridin-2-yl)methyl)-1,2,3-oxadiazol-3-ium-5-yl)((3-(trifluoromethyl)phenyl)carbamoyl)amide]	< 100		< 100
COc1ncnc(C)c1-c1ccc(C[n+]2cc([N-]C(=O)Nc3cccc(C(F)(F)F)c3)on2)nc1 [Example 135, (3-((5-(4-methoxy-6-methylpyrimidin-5-yl)pyridin-2-yl)methyl)-1,2,3-oxadiazol-3-ium-5-yl)((3-(trifluoromethyl)phenyl)carbamoyl)amide]	< 100		< 100
COc1ncnc(C)c1-c1ccc(C[n+]2cc([N-]C(=O)Nc3cncc(C(F)(F)F)c3)on2)nc1 [Example 136, (3-((5-(4-methoxy-6-methylpyrimidin-5-yl)pyridin-2-yl)methyl)-1,2,3-oxadiazol-3-ium-5-yl)((5-(trifluoromethyl)pyridin-3-yl)carbamoyl)amide]	100 to 1000	100 to 1000	
O=C([N-]c1c[n+](Cc2ccc(-c3cncnc3C(F)(F)F)cn2)no1)Nc1cncc(C(F)(F)F)c1 [Example 137, ((5-(trifluoromethyl)pyridin-3-yl)carbamoyl)(3-((5-(4-(trifluoromethyl)pyrimidin-5-yl)pyridin-2-yl)methyl)-1,2,3-oxadiazol-3-ium-5-yl)amide]	< 100		< 100
